Values quoted from earlier work, collected in patent publication US4933274A, “Process for detecting genetic susceptibility to cancer” (United States of America Represented by the Secretary of …, priority 1988, dated 1990).

Columns and labels:
normal cells = settings: ara-C 50 μM added to normal cells following irradiation
x-irradiated XP-A cells = settings: ara-C added to x-irradiated XP-A (xeroderma pigmentosum group A) cells

SMILES: Nc1ccn([C@@H]2O[C@H](CO)[C@@H](O)[C@@H]2O)c(=O)n1 [ara-C, β-cytosine arabinoside]
- frequency of chromatid damage (normal cells): enhances the frequency of chromatid damage to the level observed in the irradiated cancer-prone cells
- chromatid damage (x-irradiated XP-A cells): no effect on chromatid damage
